In patent US5017565A, “Use of sulfated polysaccharides to inhibit pancreatic cholesterol esterase” (priority 1989, dated 1991):
Like-named read-outs stand apart in the source and are kept apart here.

Experiments:
Assay type in all cases: biochemical
[1] = biological target: Human pancreatic cholesterol esterase; experiment: Inhibition of cholesteryl 14C-oleate hydrolysis by cholesterol esterase; conditions: for IC50 cholesterol esterase inhibition: 37° C., fifteen minutes, pH 7.5
[2] = biological target: human 100 kDa cholesterol esterase; experiment: Inhibition of triolein hydrolysis by cholesterol esterase; conditions: table 3; triolein used instead of cholesterol oleate
Description: (§1) Alginic acid from Macrocystis pyrifera (kelp) was dissolved in water at a concentration of 1 mg/ml. This stock solution was used to prepare various polysaccharide concentrations down to 10^-5 mg/ml. Human pancreatic cholesterol esterase was purified as described by Bosner et al., Proc Nat'l. Acad. Sci., 85, 7438 (1988). To measure cholesterol esterase inhibition by alginic acid, 50 μl of cholesterol esterase (10 μg/ml). 75 μl of phosphatidylcholine vesicles containing cholesteryl ^14 C-oleate (1 mM 2,000 CPM/nmole). 25 μl of 100 mM taurocholate, 120 μl of 150 mM Tris. pH 7.5 and 30 μl of test alginic acid solution were incubated at 37° C. for fifteen minutes. The assay was quenched by placing the reaction vessels in a 4° C. ice bath and by adding 0.6 ml of 0.3 N NaOH and 3 ml of benzene/chloroform/methanol (1 0/1.2/0 5). The quenched reactions were vortexed for 30 seconds, centrifuged at 3,000 g for 15 minutes and 1 ml of the upper aqueous phase was added to 7 ml of Aquasol-2 (DuPont) with 0.025 ml of 6 N HCl. These mixtures were vortexed for one minute and counted for ^14 C-oleate The counts were compared to a sample which contained cholesterol esterase but no alginic acid to determine the percentage of inhibition.
(The same assay procedure was used as described in Part I, only triolein was used instead of cholesterol oleate.) As shown in the table below, the IC50 for inhibition of triolein hydrolysis is nearly the same as that for cholesteryl oleate hydrolysis.

cholesterol esterase = experiment: Cholesterol esterase inhibition by water extract of baked muffin (stability under baking conditions); conditions: qualitative statement
Description: as §1
The sulfated polysaccharides described here retain their inhibitory activity for prolonged periods at elevated temperatures. […]

[3] = cholesteryl 14C-oleate substrate
[4] = cholesteryl 14C-oleate substrate, molar value assumes a molecular weight (alginic acid 240 kDa, pectin 20 kDa, chitin 300 kDa, cellulose sulfate 500 kDa), read-out: IC50 cholesterol esterase inhibition
[5] = table 3, cholesteryl oleate hydrolysis, read-out: IC50 (nM) Cholesteryl Oleate
[6] = table 2, summary of sulfated polysaccharides, read-out: IC50

Alginic acid [reference compound]
IC50 cholesterol esterase inhibition [1, 3]: 4 µg/mL | IC50 [1, 4]: 20 nM | Enhancement Factor ([1]; table 1, enhancement of inhibition relative to native alginic acid (fold)): 1.0 | IC50 [1, 5]: 20 nM | IC50 [2]: 42 nM

Cellulose Sulfate
IC50 [1, 4]: 0.02 nM | IC50 [1, 6]: 0.02 nM | IC50 [1, 5]: 0.02 nM | IC50 [2]: 0.06 nM | Retention of inhibitory activity at elevated temperatures / stability under baking conditions (in words) (cholesterol esterase): stable under baking conditions

Chitin Sulfate
IC50 [1, 6]: 0.06 nM | IC50 [1, 5]: 0.06 nM | IC50 [2]: 0.14 nM

Chitosan Sulfate
IC50 cholesterol esterase inhibition [1, 3]: 0.015 µg/mL | IC50 [1, 4]: 0.03 nM | IC50 [1, 6]: 0.03 nM | IC50 [1, 5]: 0.03 nM | IC50 [2]: 0.16 nM

Dextran Sulfate
IC50 [1, 4]: 0.02 nM | IC50 [1, 6]: 0.02 nM | IC50 [1, 5]: 0.02 nM

pectin [reference compound]
Inhibition of cholesterol esterase (in words) ([1]; qualitative statement): does not inhibit cholesterol esterase
